Values of other authors in US20090317487A1, “KITS FOR PREVENTION AND TREATMENT OF RHINITIS” (priority 2006, published 2009).

Tested on: infectious rhinitis (common cold)
Conditions: patients; literature studies (Mossad 1996, Prasad 2000, Farr 1987)

Structure (SMILES)	effect on severity and/or duration of infectious rhinitis (common cold)
CC(=O)[O-].CC(=O)[O-].[Zn+2] [zinc acetate]	reduced duration of infection
[Zn] [zinc]	significant effect on the severity and duration of infectious rhinitis
